Source: patent US9976141B2, “Compositions and methods for inhibiting gene expression of Hif2alpha” (Arrowhead Madison Inc., priority 2015, dated 2018)
“And” between values parts separate entries of the source, which are not always exact repeats. Identical values can stand only once.

Legend:
[1] = test system: human (tumor) Hif2α (EPAS1) mRNA; experiment: Hif2α knockdown in orthotopic RCC tumor bearing mice, single injection of RNAi trigger-delivery polymer conjugate, RT-qPCR (Table 7); assay type: in vivo; settings: single tail vein injection, relative to isotonic glucose
Outline: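 A single intravenous dose of Hif2α RNAi trigger–delivery polymer conjugate, or isotonic glucose vehicle, was given to nude mice with subcapsular A498-SEAP renal tumours (about 5–6 weeks old). At the indicated time, tumour RNA was assayed by biplex TaqMan qPCR against CycA, and relative expression was calculated by ΔΔCT versus vehicle.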

[2] = test system: human (tumor) Hif2α (EPAS1) mRNA; experiment: Hif2α expression in RCC tumor bearing mice after single injection of RGD targeted conjugates, 72 h, RT-qPCR (Table 11); assay type: in vivo
Protocol: Female athymic nude mice were anesthetized with ˜3% isoflourane and placed in the right lateral decubitus position. A small, 0.5-1 cm, longitudinally abdominal incision in the left flank was made. Using a moist cotton swab, the left kidney was lifted out of the peritoneum and gently stabilized. Just before injection, a 1.0 ml syringe was filled with the cell/Matrigel mixture and a 27 gauge needle catheter was attached to the syringe tip. The filled syringe was then attached to a syringe pump (Harvard Apparatus, model PHD2000) and primed to remove air. The tip of a 27-gauge needle catheter attached to a syringe was inserted just below the renal capsule near the caudal pole and the tip of the needle was then carefully advanced cranially along the capsule 3-4 mm. A 10 μl aliquot of 2:1 (vol:vol) cell/matrigel mixture containing about 300,000 cells was slowly injected into the kidney parenchyma using a syringe pump. The needle was left in the kidney for 15-20 seconds to ensure the injection was complete. The needle was then removed from the kidney and a cotton swab was placed over the injection site for 30 seconds to prevent leakage of the cells or bleeding. The kidney was then gently placed back into the abdomen and the abdominal wall was closed. Serum was collected every 7-14 days after implantation to monitor tumor growth using a commercial SEAP assay kit. For most studies, tumor mice were used 5-6 weeks after implantation, when tumor measurements were typically around 4-8 mm.
In preparation for quantitative PCR, total RNA was isolated from tissue samples homogenized in TriReagent (Molecular Research Center, Cincinnati, Ohio) following the manufacturer's protocol. Approximately 500 ng RNA was reverse-transcribed using the High Capacity cDNA Reverse Transcription Kit (Life Technologies). For human (tumor) Hif2α (EPAS1) expression, pre-manufactured TaqMan gene expression assays for human Hif2α (Catalog #4331182) and CycA (PPIA) Catalog #: 4326316E) were used in biplex reactions in triplicate using TaqMan Gene Expression Master Mix (Life Technologies) or VeriQuest Probe Master Mix (Affymetrix). For human (tumor) VegFa (VEGFA) expression, pre-manufactured TaqMan gene expression assays for human VegFa (Catalog #4331182, Assay ID: Hs00900055) and CycA (Part#: 4326316E) were used in biplex reactions in triplicate using TaqMan Gene Expression Master Mix (Life Technologies) or VeriQuest Probe Master Mix (Affymetrix). Quantitative PCR was performed by using a 7500 Fast or StepOnePlus Real-Time PCR system (Life Technologies). The ΔΔCT method was used to calculate relative gene expression.
RGD targeted HiF2α-RNAi trigger delivery polymer conjugates were formed using polymer 126, 100A, or 006. The RNAi trigger, μg indicates the quantity of trigger reacted with polymer. The polymer was modified with the indicated RGD mimic and PEG modifying agents as described above. Kidney RCC tumor-bearing mice were generated as described and treated with a single tail vein injection of isotonic glucose (G1) or the indicated Hif2α RNAi trigger-delivery polymer conjugate. Mice were euthanized 72 h (day 4) after injection and total RNA was prepared from kidney tumor using Trizol reagent following manufacturer's recommendation. Relative HiF2α mRNA levels were determined by RT-qPCR as described and compared to mice treated with delivery buffer (isotonic glucose) only (Table 11).

AD01214 (antisense TUUCAUGAAAUCGUUACGUTT; sense ACGUAACGAUUUCAUGAAAT; Hif2alpha RNAi agent antisense strand; modified_base 2,4,6,8,10,12,14,16,18 /mod_base = “2′-deoxy-2′-fluoro corresponding nucleoside”; modified_base 3,5,7,9,11,13,15,17,19 /mod_base = “2′-O-methyl corresponding nucleoside”; modified_base 21 /mod_base = “5′-phosphorothioate corresponding nucleotide”; Hif2alpha RNAi agent sense strand; modified_base 1,3,5,7,9,11,13,15,17,19 /mod_base = “2′-deoxy-2′-fluoro corresponding nucleoside”; modified_base 2,4,6,8,10,12,14,16,18 /mod_base = “2′-O-methyl corresponding nucleoside”; modified_base 20 /mod_base = “3′-3′-linked nucleotide”; modified_base 1 /mo)
Relative Expression day 4 (Hif2α mRNA in kidney tumor) ([1]; RNAi trigger 80 μg, polymer 126 400 μg): 0.29 | Relative Expression day 4 (Hif2α mRNA in kidney tumor) ([1]; RNAi trigger 112.5 μg, polymer 006 300 μg): 0.36 | Relative Expression day 4 (Hif2α) ([2]; trigger 80 μg, polymer 126 280 μg, TFF, RGD-PEG8-HyNic 0.5×, PEG12-FCit-PABC-PNP): 0.489 | Relative Expression day 4 (Hif2α) ([2]; trigger 80 μg, polymer 126 280 μg, RGD-PEG8-ACit-PABC-PNP 0.4×, PEG6-ACit-PABC-PNP): 0.360 | Relative Expression day 4 (Hif2α) ([2]; trigger 80 μg, polymer 126 280 μg, RGD-PEG8-ACitFP-NHS 1×, PEG6-ACit-PABC-PNP): 0.288 | Relative Expression day 4 (Hif2α) ([2]; trigger 80 μg, polymer 126 280 μg, RGD-PEG8-HyNic 0.5×, PEG12-FCitFP-TFP): 0.210 | Relative Expression day 4 (Hif2α) ([2]; trigger 112.5 μg, polymer 006 300 μg, RGD-PEG8-HyNic, PEG12-ACit-PABC-PNP): 0.357 | Relative Expression day 4 (Hif2α) ([2]; trigger 112.5 μg, polymer 100A 375 μg, TFF, RGD-PEG15-FCitFP-TFP 0.5×, no. 10.8, PEG12-ACit-PABC-PNP): 0.193 | Relative Expression day 4 (Hif2α) ([2]; trigger 112.5 μg, polymer 100A 375 μg, TFF, RGD-PEG15-FCitFP-TFP 1×, no. 16.1, PEG12-ACit-PABC-PNP): 0.182 | Relative Expression day 4 (Hif2α) ([2]; trigger 112.5 μg, polymer 100A 375 μg, TFF, RGD-PEG15-FCitFP-TFP 2×, no. 29.0, PEG12-ACit-PABC-PNP): 0.182 | Relative Expression day 4 (Hif2α) ([2]; trigger 112.5 μg, polymer 100A 375 μg, TFF, RGD-PEG19-FCitFP-TFP 0.5×, no. 10.7, PEG12-ACit-PABC-PNP): 0.163 | Relative Expression day 4 (Hif2α) ([2]; trigger 112.5 μg, polymer 100A 375 μg, TFF, RGD-PEG19-FCitFP-TFP 1×, no. 18.5, PEG12-ACit-PABC-PNP): 0.114 | Relative Expression day 4 (Hif2α) ([2]; trigger 112.5 μg, polymer 100A 375 μg, TFF, RGD-PEG19-FCitFP-TFP 2×, no. 31.1, PEG12-ACit-PABC-PNP): 0.182 | Relative Expression day 4 (Hif2α) ([2]; trigger 112.5 μg, polymer 100A 375 μg, TFF, RGD-PEG20-FCitFP-TFP 0.125×, no. 1.9, PEG12-ACit-PABC-PNP): 0.169 | Relative Expression day 4 (Hif2α) ([2]; trigger 112.5 μg, polymer 100A 375 μg, TFF, RGD-PEG20-FCitFP-TFP 0.25×, no. 3.4, PEG12-ACit-PABC-PNP): 0.168 | Relative Expression day 4 (Hif2α) ([2]; trigger 112.5 μg, polymer 100A 375 μg, TFF, RGD-PEG20-FCitFP-TFP 0.5×, no. 6.6, PEG12-ACit-PABC-PNP): 0.130 | Relative Expression day 4 (Hif2α) ([2]; trigger 112.5 μg, polymer 100A 375 μg, TFF, RGD-PEG20-FCitFP-TFP 1×, no. 12.7, PEG12-ACit-PABC-PNP): 0.121 | Relative Expression day 4 (Hif2α) ([2]; trigger 112.5 μg, polymer 100A 375 μg, TFF, RGD-PEG20-FCitFP-TFP 1.5×, no. 20.3, PEG12-ACit-PABC-PNP): 0.135 | Relative Expression day 4 (Hif2α) ([2]; trigger 112.5 μg, polymer 100A 375 μg, RGD-PEG19-FCitFP-TFP 1×, PEG12-ACit-PABC-PNP): 0.195 | Relative Expression day 4 (Hif2α) ([2]; trigger 112.5 μg, polymer 100A 375 μg, RGD-PEG19-FCitFP-TFP 1×, PEG12-FCitFP-TFP): 0.148 and 0.188 | Relative Expression day 4 (Hif2α) ([2]; trigger 115 μg, polymer 100A 375 μg, RGD-PEG8-HyNic 0.5×, PEG12-FCitFP-TFP): 0.258
